These results are taken from patent US20240230620A1, “CURRENT AND […]” (National Taiwan University, priority 2023, published 2024).

In assay [1] the test system is Gα subunit. To be noted: fluorescence.
Protocol: The intrinsic tryptophan in the switch-II region serves as a fluorescent probe for examining the activity of Ga subunit. In the AlF4^− dependent activation assay, the AlF4^− bound to GDP mimics the transition state of GTP hydrolysis, stimulating the conformational change of the switch-II region and enhancing the fluorescence quantum yields of intrinsic Trp. This principle was also applied to GDP/GTP auto-exchange, but it was conducted using of GTPγS, a non-hydrolyzable GTP analog. In the time-course of Trp fluorescence measurement, the excitation and emission wavelengths were 280 and 340 nm, respectively, and both slits are 10 nm. For AlF4^− dependent activation assay, 20 μL 20 μM Ga protein was first added into a cuvette filled with 1.5 mL buffer G without BME and PMSF at 50 s. Then 40 μL 500 mM NaF and 20 μL 10 mM AlCl3 were added simultaneously at 100 s. For GDP/GTP auto-exchange, the experiments were conducted as described above using 1 μM GTPγS instead of AlF4^−.
The effectiveness of Gα inactivation using EDTA was analyzed by fluorescence (FIG. 23(A)).
Assay [2] has as its target T1, AtGPA1 (Arabidopsis thaliana, UniProt P18064).
T1 sequence (P18064 1-383): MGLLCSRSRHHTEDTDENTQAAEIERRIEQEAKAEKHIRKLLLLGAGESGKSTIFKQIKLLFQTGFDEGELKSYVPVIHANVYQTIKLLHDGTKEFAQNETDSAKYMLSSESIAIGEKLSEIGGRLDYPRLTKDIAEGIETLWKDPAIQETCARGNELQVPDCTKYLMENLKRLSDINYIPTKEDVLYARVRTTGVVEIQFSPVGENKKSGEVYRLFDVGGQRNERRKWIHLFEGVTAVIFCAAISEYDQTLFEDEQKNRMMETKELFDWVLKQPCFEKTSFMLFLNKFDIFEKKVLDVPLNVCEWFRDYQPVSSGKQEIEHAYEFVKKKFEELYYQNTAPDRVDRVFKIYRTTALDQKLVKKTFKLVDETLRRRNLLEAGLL
To be noted: derived from radioactive GTPγS assay; read-out: KD of AtGPA1 and GTPγS, previous study; cited from earlier work.

The target of assay [3] is T1, AtGPA1. Briefly: GTPγS saturation binding analysis of AtGPA1 (photocurrent and fluorescence). To be noted: percent of maximum fitted to a hyperbola, preliminary test. Here is the method:
The photo-induced-voltage-generating solution chamber was filled with 20 mg/mL HEBR solution in the dual chamber format. The sample to be tested was added to the sample chamber at a volume of 100-150 μL. The photo-induced-voltage-generating solution chamber was illuminated by a 10-Hz, 532-nm flash laser (Nd-YAG laser, 6 ns pulse, pump energy 21 J) via a central control unit (Raspberry Pi 400) to generate the alternating photocurrent. The data recording system was identical to steady-state photocurrent measurement. Each data was collected at a single trigger event. The laser was triggered at 0 s and stopped at 40 s with each 5 s pre-trigger and post-illumination. Then, the raw data were recorded in a .csv file and processed by the Python code. The processed data were exported to an excel file for further analysis.
After the successful measurement of the interaction of Gα with its ligand, the present device was extended to measure the KD of Gα and its ligands. In preliminary test, the plant Arabidopsis thaliana Gα AtGPA1 and a non-hydrolyzable GTP analog GTPγS were adopted. […] The AtGPA1 was purified and analyzed the activity using the identical method in mammalian Gα purification.
Referring to FIG. 24, to calculate the KD of AtGPA1 and GTPγS, both photocurrent and fluorescence were measured. […]

Read-outs that look alike come from different tables or passages of the source.

On to `O=C(O)CN(CCN(CC(=O)O)CC(=O)O)CC(=O)O` [EDTA], for which the Gα subunit inactivation entry in assay [1] (20 μM Gα subunit at 100 mM EDTA) is “almost inactivated”. Moreover, in assay [1] (20 μM Gα subunit in 10 mM EDTA), the “reduction of Gα subunit activity” value is recorded as “more than 60%”.
As for `Nc1nc2c(ncn2[C@@H]2O[C@H](COP(=O)(O)OP(=O)(O)OP(O)(O)=S)[C@@H](O)[C@H]2O)c(=O)[nH]1` [GTPγS], the Kd in assay [2] was 0.8 nM; in assay [3], approximately 1.5 nM.
